# Results published in patent publication US8609729B2, “Method for treating macular degeneration” (Sucampo AG, priority 2009, dated 2013).
# How the values were obtained:
# Assay type in all cases: cell-based
# [1] = tested on: Human retinal pigment epithelium cells (ARPE-19 cells); assay: Barrier function: passage of 3,000 Dalton FITC-labeled dextran from apical to basolateral media of tBH-treated ARPE-19 cells; details: 100 nM Compound A plus 100 μM tBH; dextran added at 20 hours, fluorescence at 44 hours; FIG. 2
# Protocol: (§1) Human retinal pigment epithelium cells (ARPE-19 cells, purchased from American Type Culture Collection (ATCC)) were used in the study. ARPE-19 cells were grown on Corning Transwell 0.4 μm pore size filters (Corning Incorporated, NY, USA) in Dulbecco's modified Eagles medium containing 10% fetal calf serum. Trans-Epithelial Resistance (TER) of the cultured cells was determined using an EVOM volt-ohm meter. The TER of the cultured cells was determined by subtracting the resistance value measured with the filter alone from the value measured with the cultured cells.
# ARPE-19 cells grown until they reached a TER of approximately 50 Ohm/1.2 cm^2 were treated with 100 μM tBH in 0.1% decane, 100 nM Compound A in DMSO (0.1% final DMSO), or a combination of tBH plus Compound A (initial treatment). At 20 hours after the initial treatment, 3,000 Dalton FITC-labeled dextran was added at a concentration of 0.1 mg/ml to the apical surface of the cell culture and the culture was further incubated. Fluorescence of the media bathing the basolateral surface was then measured at 44 hours. Wavelengths for FITC were 494 ex/518 em.
# [2] = tested on: Human retinal pigment epithelium cells (ARPE-19 cells); assay: Protection from light induced cell death in A2E containing RPE cells (WST-8 viability)
# Protocol: Protection by Compound A from light induced cell death in pyridinium bis-retinoid (A2E) containing retinal pigment epithelium (RPE) cells
# Human retinal pigment epithelium cells (ARPE-19 cells) were used in the study. ARPE-19 cells were maintained in DMEM/F12 medium (supplemented with 10% FBS and 1% Penicillin-Streptomycin Mixed Sol.) in 25 cm^2 or 75 cm^2 culture flask. For the experiment, the cells were seeded on multi-well chamber slides. After confirming the cells adhered to slide, the media were changed to pyridinium bis-retinoid (A2E) containing culture medium and the cells were cultured for 5-14 days The media were changed to phosphate buffered saline (containing A2E), and then the cells were exposed to blue light (430 nm) delivered from a halogen source for 20 min. Compound A dissolved in dimethyl sulfoxide was added 1 hr before the light: exposure (the final concentration was 10 and 50 nM). After the light exposure, the cells were cultured in the DMEM/F12 medium for 24 hours. The cells were then incubated in DMEM/F12 medium containing 10% WST-8 (without A2Z) for 4 hours. Absorbance at 450 nm was measured. An increase in the absorbance is indicative of cellular viability.
# [3] = tested on: Human retinal pigment epithelium cells (ARPE-19 cells); assay: Trans-Epithelial Resistance (TER) of ARPE-19 cells treated with tert-butyl hydroperoxide (tBH); details: 100 nM Compound A plus 100 μM tBH; TER at 0, 6, 18, 24 and 48 hours; FIG. 1
# Protocol: as §1
# The cells were grown until they reached a TER of approximately 50 Ohm/1.2 cm^2. They were then treated with 100 μM tert-butyl hydroperoxide (tBH) in 0.1% decane, 100 nM Compound A (isopropyl unoprostone, i.e. 13,14-dihydro-15-keto-20-ethyl-PGF2α isopropyl ester) in DMSO (0.1% final DMSO), or a combination of tBH plus Compound A. TER was determined at 0, 6, 18, 24 and 48 hours after the treatment.
smiles,measurement,setting,value
"CCCCCCCC(=O)CC[C@@H]1[C@@H](C/C=C\CCCC(=O)OC(C)C)[C@@H](O)C[C@H]1O [Compound A, 13,14-dihydro-15-keto-20-ethyl-PGF2α isopropyl ester]","Effect on the loss of barrier function caused by tBH (passage of 3,000 Dalton fluorescent dextran)",[1],protected against the loss of barrier function caused by tBH
same,Effect on cell death induced by A2E/light exposure,"[2]; 10 and 50 nM, A2E + blue light exposure",prevented cell death induced by A2E/light exposure
same,viability at 0.01 µM,"[2]; Homo sapiens, ARPE-19, 10 nM, A2E + light exposure (430 nm, 20 min), compound added 1 hr before light, WST-8 after 24 hours",90%
same,viability at 0.05 µM,"[2]; Homo sapiens, ARPE-19, 50 nM, A2E + light exposure (430 nm, 20 min), compound added 1 hr before light, WST-8 after 24 hours",89%
same,Effect on the loss of TER caused by tBH,[3],protected against the loss of TER caused by tBH
